Data published in US10513523B2, “Imidazopyrazines and pyrazolopyrimidines and their use as AMPA receptor modulators” (Janssen Pharmaceutica NV, priority 2015, dated 2019).

Columns and labels:
[1] = target: GluA1o-γ8 (GRIA1o-CACNG8 fusion construct; TARP γ8 dependent AMPA receptor) (Homo sapiens (Human), UniProt P42261+Q8WXS5); assay: Calcium flux assay (FLIPR), inhibition of glutamate response of GluA1o-γ8 channel; format: cell-based; conditions: HEK293 cells stably expressing GRIA1o-CACNG8 fusion; 15 μM glutamate; pIC50 = negative log of IC50 in molar; read-out: GluR1-γ8 (pIC50) (converted)
Chain of GluA1o-γ8 (GRIA1o-CACNG8 fusion construct; TARP γ8 dependent AMPA receptor) (P42261 other isoform, or with tags, fused parts or gaps): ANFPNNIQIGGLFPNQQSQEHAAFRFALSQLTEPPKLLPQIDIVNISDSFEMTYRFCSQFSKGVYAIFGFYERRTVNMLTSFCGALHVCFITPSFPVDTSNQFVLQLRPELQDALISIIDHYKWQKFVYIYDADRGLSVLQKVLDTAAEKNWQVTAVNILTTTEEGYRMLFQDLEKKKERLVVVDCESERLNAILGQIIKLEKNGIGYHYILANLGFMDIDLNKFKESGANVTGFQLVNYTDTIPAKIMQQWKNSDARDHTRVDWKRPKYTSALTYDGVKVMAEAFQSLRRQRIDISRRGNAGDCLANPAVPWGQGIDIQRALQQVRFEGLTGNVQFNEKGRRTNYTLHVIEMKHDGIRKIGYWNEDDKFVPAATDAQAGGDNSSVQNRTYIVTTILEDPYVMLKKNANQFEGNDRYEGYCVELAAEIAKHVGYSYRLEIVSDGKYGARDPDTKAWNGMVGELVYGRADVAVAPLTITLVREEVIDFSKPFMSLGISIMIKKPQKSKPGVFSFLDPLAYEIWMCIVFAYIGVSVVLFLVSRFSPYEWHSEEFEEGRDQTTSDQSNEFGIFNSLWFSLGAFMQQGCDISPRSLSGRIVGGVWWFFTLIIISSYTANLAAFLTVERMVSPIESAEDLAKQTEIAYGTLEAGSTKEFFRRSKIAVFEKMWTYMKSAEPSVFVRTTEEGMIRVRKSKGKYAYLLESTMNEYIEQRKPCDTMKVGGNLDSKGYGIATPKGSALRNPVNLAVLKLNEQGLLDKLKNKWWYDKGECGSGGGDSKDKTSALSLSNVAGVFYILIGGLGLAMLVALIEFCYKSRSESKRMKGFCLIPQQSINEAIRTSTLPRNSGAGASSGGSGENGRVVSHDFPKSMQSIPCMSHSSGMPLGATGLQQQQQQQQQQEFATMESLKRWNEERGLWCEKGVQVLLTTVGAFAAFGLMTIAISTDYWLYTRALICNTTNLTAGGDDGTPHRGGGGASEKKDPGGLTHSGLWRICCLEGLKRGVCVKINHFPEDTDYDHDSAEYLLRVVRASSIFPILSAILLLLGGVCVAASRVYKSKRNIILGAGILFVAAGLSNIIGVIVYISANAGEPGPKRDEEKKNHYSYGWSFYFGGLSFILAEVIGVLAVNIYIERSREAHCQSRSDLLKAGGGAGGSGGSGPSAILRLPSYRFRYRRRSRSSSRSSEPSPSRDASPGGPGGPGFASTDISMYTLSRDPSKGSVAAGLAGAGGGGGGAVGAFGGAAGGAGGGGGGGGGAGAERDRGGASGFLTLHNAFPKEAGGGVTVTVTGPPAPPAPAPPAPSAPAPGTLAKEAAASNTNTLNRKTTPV
In short: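 Potency is the midpoint of a four-parameter logistic fit to control-normalized FLIPR calcium responses elicited by 15 μM glutamate. Stable HEK293 cells carried a fused GluA1o-γ8 construct and were preincubated with compound and calcium dye in pH 7.4 HEPES buffer.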

[2] = test system: endogenous γ8-containing AMPA receptor currents; assay: Whole-cell electrophysiology on acutely-dissociated mouse hippocampal neurons; format: cell-based; conditions: 10 mM glutamate, 500 ms, held at -60 mV
Method: The effects of selected compounds upon endogenous γ 8-containing AMPA receptor currents was evaluated using whole-cell electrophysiology on acutely-dissociated mouse hippocampal neurons. Hippocampus was chosen for this assay, since CACNG8 (the protein encoded by this gene is a type I transmembrane AMPA receptor regulatory protein i.e., TARP) is preferentially enriched in this brain region (Tomita et al. (2003). “Functional studies and distribution define a family of transmembrane AMPA receptor regulatory proteins.” J Cell Biol 161(4): 805-816.2003).
Hippocampi were dissected from C57black6 mice at 4-12 weeks postnatal, following the protocol described by Brewer (Brewer, G. J. (1997). “Isolation and culture of adult rat hippocampal neurons.” Journal of Neuroscience Methods 71(2): 143-155). The following is a brief summary of the procedure. Mice were asphyxiated with CO2 then decapitated. The brain was rapidly removed, then placed into ice-cold HABG medium. The recipe for HABG medium was: HibernateA supplemented with 2% B27 and 0.5 mM Glutamax (all reagents from Life Technologies). Hippocampi were micro-dissected from the brains, then washed with HABG without calcium (Hibernate A minus Calcium, BrainBits; 2% B27, Life Technologies; 0.5 mM glutamax, Life Technologies).
The hippocampi were then transferred to HABG without calcium, supplemented with 2 mg/mL papain (Worthington Biochemical). They were incubated at 30° C. on a roller for 40 min, then gently triturated with a fire-polished glass pipette. The supernatant containing dissociated neurons was collected, then centrifuged for 2 min at 200 g. The cell pellet was collected, and then resuspended in 8 mL of HABG. Live cells were counted, then plated onto 12 mm glass coverslips in HABG (2 mL) in 24-well plates at a density of 50-100 cells per coverslip. These cells were maintained at room temperature until use.
Whole-cell electrophysiology was performed using 1.5 mm diameter glass capillary tubes (World Precision Instruments TW150-4), pulled to a fine tip with a Sutter P-97 micropipette puller. The intracellular buffer was 90 mM KF, 30 mM KCl, 10 mM HEPES, and 5 mM EGTA, pH 7.4, 290mOs. The extracellular buffer was 135 mM NaCl, 4 mM KCl, 2 mM CaCl2, 1 mM MgCl2, 5 mM glucose, 10 mM HEPES, pH 7.4, 300 mOs. The open-tip resistances of the micropipettes using these solutions were 2-4 MΩ. Whole-cell recordings of neuron cell bodies were performed in voltage-clamp mode using an Axon Axopatch 200B amplifier. Whole-cell current was measured holding the interior of the cell at −60 mV, using a 5 kHz lowpass filter. The cells were continuously perfused through 7 mm square glass barrels using a solenoid-controlled solution switching device (Warner Instruments, PF-77B). The peak current in response to a 500 ms exposure to 10 mM glutamate every 5 seconds was measured, before and after exposure to test compound.
For analysis, the mean peak current of 5 traces in the presence of test compound was divided by the mean peak current of 5 traces prior to the addition of test compound. Compounds were tested at concentrations at least ten times higher than their estimated potency in the calcium flux assay, in order to ensure near-saturating occupancy of the receptor.

Row | SMILES | IC50 [1] | further results
1 | O=C1Cc2cc(-c3c(-c4ccc(F)cc4)nc4c(N5CCC(O)CC5)nccn34)ccc2N1 [Example 37, 5-[2-(4-Fluorophenyl)-8-(4-hydroxy-1-piperidyl)imidazo[1,2-a]pyrazin-3-yl]indolin-2-one] | 0.316 nM | peak current (% control) ([2]; 0.1 μM test compound): 66%
2 | CC(=O)N1CCN(c2nccn3c(-c4ccc5c(c4)CC(=O)N5)c(Cc4ccccc4)nc23)CC1 [Example 17, 5-[8-(4-Acetylpiperazin-1-yl)-2-benzyl-imidazo[1,2-a]pyrazin-3-yl]indolin-2-one] | 1.26 nM | peak current (% control) ([2]; 0.1 μM test compound): 68%
3 | CC(=O)N1CCN(c2nccn3c(-c4ccc5c(c4)CC(=O)N5)c(-c4ccc(C#N)cc4)nc23)CC1 [Example 107, 4-[8-(4-Acetylpiperazin-1-yl)-3-(2-oxoindolin-5-yl)imidazo[1,2-a]pyrazin-2-yl]benzonitrile] | 2.51 nM | peak current (% control) ([2]; 0.1 μM test compound): 67%
4 | Oc1ccc(-c2c(-c3ccc(F)cc3)nc3c(N4CC5(COC5)C4)nccn23)cc1 [Example 7, 4-[2-(4-Fluorophenyl)-8-(6-oxa-2-azaspiro[3.3]heptan-2-yl)imidazo[1,2-a]pyrazin-3-yl]phenol] | 50.1 nM | peak current (% control) ([2]; 10 μM test compound): 55%
5 | CC(=O)N1CCN(c2nccn3c(-c4ccc5c(c4)CC(=O)N5)c(-c4ccc(F)cc4)nc23)CC1 [Example 12, 5-[8-(4-Acetylpiperazin-1-yl)-2-(4-fluorophenyl)imidazo[1,2-a]pyrazin-3-yl]indolin-2-one] | 0.398 nM | peak current (% control) ([2]; 0.1 μM test compound): 69%
6 | Fc1ccc(-c2nc3c(N4CCOCC4)nccn3c2-c2ccc3[nH]ncc3c2)cc1 [Example 10, 4-[2-(4-Fluorophenyl)-3-(1H-indazol-5-yl)imidazo[1,2-a]pyrazin-8-yl]morpholine] | 0.631 nM | peak current (% control) ([2]; 0.1 μM test compound): 64%; peak current (% control) ([2]; 1 μM test compound): 74%
7 | CC(=O)N1CCN(c2nccn3c(-c4ccc(O)cc4)c(-c4ccc(F)cc4)nc23)CC1 [Example 1, 1-[4-[2-(4-Fluorophenyl)-3-(4-hydroxyphenyl)imidazo[1,2-a]pyrazin-8-yl]piperazin-1-yl]ethanone] | 6.31 nM | peak current (% control) ([2]; 10 μM test compound): 81%
8 | Oc1ccc(-c2c(-c3ccc(F)cc3)nc3c(N4CCOCC4)nccn23)cc1 [Example 83, 4-[2-(4-Fluorophenyl)-8-morpholino-imidazo[1,2-a]pyrazin-3-yl]-phenol] | 12.6 nM | peak current (% control) ([2]; 10 μM test compound): 78%
9 | O=C1Cc2cc(-c3c(C4CCCC4)nc4c(N5CCOCC5)nccn34)ccc2N1 [Example 57, 5-(2-Cyclopentyl-8-morpholino-imidazo[1,2-a]pyrazin-3-yl)indolin-2-one] | 15.8 nM | 
10 | O=C1Cc2cc(-c3c(-c4ccccc4)nc4c(N5CC(F)C5)nccn34)ccc2N1 [Example 81, 5-[8-(3-Fluoroazetidin-1-yl)-2-phenyl-imidazo[1,2-a]pyrazin-3-yl]indolin-2-one] | 0.398 nM | 
11 | O=C1Cc2cc(-c3c(-c4ccc(F)cc4)nc4c(N5CCCC(O)C5)nccn34)ccc2N1 (stereo not shown) [Example 54, 5-[2-(4-Fluorophenyl)-8-(3-hydroxy-1-piperidyl)imidazo[1,2-a]pyrazin-3-yl]indolin-2-one] | 0.316 nM | 
12 | O=C1Cc2cc(-c3c(-c4ccc(F)cc4)nc4c(NC5CCNC5=O)nccn34)ccc2N1 (stereo not shown) [Example 40, 5-[2-(4-Fluorophenyl)-8-[(2-oxopyrrolidin-3-yl)amino]imidazo[1,2-a]pyrazin-3-yl]indolin-2-one] | 251 nM | 
13 | N#CC1CN(c2nccn3c(-c4ccc5c(c4)CC(=O)N5)c(-c4ccc(F)cc4)nc23)C1 [Example 66, 1-[2-(4-Fluorophenyl)-3-(2-oxoindolin-5-yl)imidazo[1,2-a]pyrazin-8-yl]azetidine-3-carbonitrile] | 3.98 nM | 
14 | c1ccc(Cc2nc3c(N4CCOCC4)nccn3c2-c2ccc3[nH]ncc3c2)cc1 [Example 21, 4-[2-Benzyl-3-(1H-indazol-5-yl)imidazo[1,2-a]pyrazin-8-yl]morpholine] | 1 nM | 

The next lines start with results.

Row | IC50 [1] | SMILES | further results
15 | 0.0631 nM | COC1CCN(c2nccc3c(-c4ccc5[nH]c(=O)sc5c4)c(-c4ccccc4)nn23)CC1 [Example 213, 6-[7-(4-Methoxy-1-piperidyl)-2-phenyl-pyrazolo[1,5-c]pyrimidin-3-yl]-3H-1,3-benzothiazol-2-one] | 
16 | 31.6 nM | O=C(NC1CCCCC1)c1nc2c(N3CCOCC3)nccn2c1-c1ccc2[nH]c(=O)[nH]c2c1 [Example 214, N-Cyclohexyl-8-morpholino-3-(2-oxo-1,3-dihydrobenzimidazol-5-yl)imidazo[1,2-a]pyrazine-2-carboxamide] | 
17 | 0.0794 nM | Cc1cnc(N2CCOCC2)n2nc(-c3ccccc3)c(-c3ccc4[nH]ncc4c3)c12 [Example 212, 4-[3-(1H-Indazol-5-yl)-4-methyl-2-phenyl-pyrazolo[1,5-c]pyrimidin-7-yl]morpholine] | 
18 | 6.31 nM | CN(C)c1nccn2c(-c3ccc4c(c3)CC(=O)N4)c(C(=O)Nc3ccccc3)nc12 [Example 144, 8-(Dimethylamino)-3-(2-oxoindolin-5-yl)-N-phenyl-imidazo[1,2-a]pyrazine-2-carboxamide] | 
19 | 39.8 nM | O=c1ccc2cc(-c3c(-c4ccc(F)cc4)nc4c(N5CCOCC5)nccn34)ccc2[nH]1 [Example 125, 6-[2-(4-Fluorophenyl)-8-morpholino-imidazo[1,2-a]pyrazin-3-yl]-1H-quinolin-2-one] | 
20 | 2 nM | CC(=O)N1CCN(c2ncc(C)n3c(-c4ccc5c(c4)CC(=O)N5)c(Cc4ccccc4)nc23)CC1 [Example 114, 5-(8-(4-Acetylpiperazin-1-yl)-2-benzyl-5-methylimidazo[1,2-a]pyrazin-3-yl)indolin-2-one] | 
21 | 1.26 nM | CN1CCN(c2nccn3c(-c4ccc5c(c4)CC(=O)N5)c(-c4ccc(F)cc4)nc23)CC1=O [Example 110, 5-(2-(4-fluorophenyl)-8-(4-methyl-3-oxopiperazin-1-yl)imidazo[1,2-a]pyrazin-3-yl)indolin-2-one] | 
22 | 158 nM | O=C1Cc2cc(-c3c(C4CCCC4)nn4c(N5CC(F)C5)nccc34)ccc2N1 [Example 196, 5-[2-Cyclopentyl-7-(3-fluoroazetidin-1-yl)pyrazolo[1,5-c]pyrimidin-3-yl]indolin-2-one] | 
23 | 3.98 nM | N#Cc1ccc(-c2nc3c(N4CCNC(=O)C4)nccn3c2-c2ccc3[nH]c(=O)[nH]c3c2)cc1 [Example 211, 4-[3-(2-Oxo-1,3-dihydrobenzimidazol-5-yl)-8-(3-oxopiperazin-1-yl)imidazo[1,2-a]pyrazin-2-yl]benzonitrile] | 
24 | 0.501 nM | O=C1Cc2cc(-c3c(-c4ccc(F)cc4)nn4c(N5CCOCC5)nccc34)ccc2N1 [Example 164, 5-[2-(4-Fluorophenyl)-7-morpholino-pyrazolo[1,5-c]pyrimidin-3-yl]indolin-2-one] | 
25 | 20 nM | O=C(Nc1ccccc1)c1nc2c(N3CCOCC3)nccn2c1-c1ccc(O)cc1 [Example 138, 3-(4-Hydroxyphenyl)-8-morpholino-N-phenyl-imidazo[1,2-a]pyrazine-2-carboxamide] | 
